Assay results taken from patent US4997454A, “Method for making uniformly-sized particles from insoluble compounds” (The University of Rochester, priority 1989, dated 1991).
≈ marks a conversion by molar mass, not a printed value.

solubility in water	solubility (solubility; absolute ethanol, organic solvent or mixture) [µg/mL]	solubility (solubility; water) [µg/mL]	SMILES
10^-5 M	–	–	CCOC(=O)c1c(I)cc(I)c(NC(=O)CCCCC(=O)Nc2c(I)cc(I)c(C(=O)OCC)c2I)c1I [IDE, iodipamide ethyl ester]
–	< 4	70 (≈ 257 µM)	O=C1NC(=O)[C@H]2[C@H]3C=C[C@@H]([C@@H]12)[C@@H]1[C@H]2C(=O)NC(=O)[C@H]2[C@H]31 [mitindomide]
